Values of other authors, collected in US20230025663A1, “NANOFORMULATION WITH DIVERSE FUNCTIONAL MOLECULES FROM TURMERIC AND PROCESS FOR PREPARATION OF THE SAME” (ZEROHARM SCIENCES PRIVATE LIMITED, priority 2021, published 2023).

Settings: in vivo

- bioavailability: ~1%
SMILES: COc1cc(/C=C/C(=O)CC(=O)/C=C/c2ccc(O)c(OC)c2)ccc1O [curcumin]
